Source: US20140005163A1 (NOVARTIS AG, priority 2010, published 2014)
Converted amounts (≈) assume the structure as drawn.

Legend:
PI3K beta = biological target: T1, PI3K beta (Homo sapiens, UniProt P42338); experiment: PI3K beta kinase assay (Kinase-Glo luminescence); format: biochemical
T1 construct: for the full-length p110-b subunit are generated and fused by overlapping PCR; p85(iSH2) fusion partner (see partner chain) (N); His tag (C); made in house; host or cells: baculovirus; Tn5 (Trichoplusia ni) or TiniPro insect cells
Procedure, shortened: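 Kinase-Glo luminescence after a 60 min room-temperature reaction gives remaining ATP. The reaction holds 25 nM p85(iSH2)-p110β full-length His-tagged construct, 1 μM ATP, 10 μg/mL PI, and eight compound concentrations at 0.45% DMSO final. IC50 values come from a four-parameter logistic fit.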

[1] = test system: PKB Ser473 phosphorylation in Rat1-myr-HA-p110 beta cells; experiment: Reverse protein array assay, PKB Ser473 phosphorylation in Rat1-myr-p110 beta cells; format: cell-based; conditions: 0.5 h, pAkt Ser473, 30 minutes incubation, read-out: p-PKB IC50
Procedure, shortened: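 After at least 20 h of culture, the p110 isoform-transfected Rat1 lines receive compound in an 8-step dilution series, keeping DMSO at 0.2%, for 30 minutes. Cells are then lysed and lysates arrayed on chips for fluorescence detection of Ser473-phosphorylated PKB.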

Solubility at pH 6.8 = format: physicochemical; conditions: pH 6.8, aqueous buffer, thermodynamic from solid; read-out: solubility
Procedure, shortened: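 Following the procedure of Zhou et al. (2007), compound solubility was determined at pH 6.8.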

PI3K alpha = biological target: T2, PI3K alpha (Homo sapiens, UniProt P42336); experiment: PI3K alpha kinase assay (Kinase-Glo luminescence); format: biochemical
T2 construct: p85(iSH2) fusion partner (see partner chain) (N); His tag (C); made in house; host or cells: baculovirus; Tn5 (Trichoplusia ni) or TiniPro insect cells
Procedure, shortened: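 Luminescent ATP-depletion assay (Kinase-Glo) with 10 nM PI3Kα and 10 μg/mL phosphatidylinositol as lipid substrate at 1 μM ATP. Incubation lasts 60 min at room temperature.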

T2 sequence (P42336 with tags, fused parts or gaps limits assumed): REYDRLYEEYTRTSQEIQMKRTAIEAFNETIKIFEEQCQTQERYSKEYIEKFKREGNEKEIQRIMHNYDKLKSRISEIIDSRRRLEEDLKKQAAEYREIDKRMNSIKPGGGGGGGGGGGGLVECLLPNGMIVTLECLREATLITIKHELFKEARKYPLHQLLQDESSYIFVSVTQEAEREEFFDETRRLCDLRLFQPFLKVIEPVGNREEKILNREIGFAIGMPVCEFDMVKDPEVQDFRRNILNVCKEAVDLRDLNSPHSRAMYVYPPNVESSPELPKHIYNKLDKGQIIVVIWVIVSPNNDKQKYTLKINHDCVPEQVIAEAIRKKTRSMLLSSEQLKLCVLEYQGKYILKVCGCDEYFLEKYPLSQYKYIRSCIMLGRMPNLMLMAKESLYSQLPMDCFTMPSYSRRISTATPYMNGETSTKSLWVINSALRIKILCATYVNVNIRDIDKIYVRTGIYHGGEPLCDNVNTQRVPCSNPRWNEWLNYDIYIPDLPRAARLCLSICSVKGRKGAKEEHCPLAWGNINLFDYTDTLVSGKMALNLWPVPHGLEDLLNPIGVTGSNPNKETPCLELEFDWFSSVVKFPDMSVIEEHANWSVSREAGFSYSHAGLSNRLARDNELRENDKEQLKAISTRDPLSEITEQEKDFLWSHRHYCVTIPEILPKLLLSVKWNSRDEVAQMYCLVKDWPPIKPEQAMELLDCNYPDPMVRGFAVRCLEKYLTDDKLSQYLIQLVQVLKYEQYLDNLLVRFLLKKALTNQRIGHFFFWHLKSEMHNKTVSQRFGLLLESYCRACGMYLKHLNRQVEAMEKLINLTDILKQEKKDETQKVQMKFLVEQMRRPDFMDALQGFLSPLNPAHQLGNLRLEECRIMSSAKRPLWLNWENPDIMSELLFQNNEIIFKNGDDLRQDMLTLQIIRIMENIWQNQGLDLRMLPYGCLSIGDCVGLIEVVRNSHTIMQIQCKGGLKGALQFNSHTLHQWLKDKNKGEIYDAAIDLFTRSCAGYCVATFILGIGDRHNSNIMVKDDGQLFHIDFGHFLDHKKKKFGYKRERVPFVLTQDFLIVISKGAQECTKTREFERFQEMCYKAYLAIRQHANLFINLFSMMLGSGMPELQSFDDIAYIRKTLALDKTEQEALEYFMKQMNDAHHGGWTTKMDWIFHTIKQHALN
T1 sequence (P42338 with tags, fused parts or gaps limits assumed): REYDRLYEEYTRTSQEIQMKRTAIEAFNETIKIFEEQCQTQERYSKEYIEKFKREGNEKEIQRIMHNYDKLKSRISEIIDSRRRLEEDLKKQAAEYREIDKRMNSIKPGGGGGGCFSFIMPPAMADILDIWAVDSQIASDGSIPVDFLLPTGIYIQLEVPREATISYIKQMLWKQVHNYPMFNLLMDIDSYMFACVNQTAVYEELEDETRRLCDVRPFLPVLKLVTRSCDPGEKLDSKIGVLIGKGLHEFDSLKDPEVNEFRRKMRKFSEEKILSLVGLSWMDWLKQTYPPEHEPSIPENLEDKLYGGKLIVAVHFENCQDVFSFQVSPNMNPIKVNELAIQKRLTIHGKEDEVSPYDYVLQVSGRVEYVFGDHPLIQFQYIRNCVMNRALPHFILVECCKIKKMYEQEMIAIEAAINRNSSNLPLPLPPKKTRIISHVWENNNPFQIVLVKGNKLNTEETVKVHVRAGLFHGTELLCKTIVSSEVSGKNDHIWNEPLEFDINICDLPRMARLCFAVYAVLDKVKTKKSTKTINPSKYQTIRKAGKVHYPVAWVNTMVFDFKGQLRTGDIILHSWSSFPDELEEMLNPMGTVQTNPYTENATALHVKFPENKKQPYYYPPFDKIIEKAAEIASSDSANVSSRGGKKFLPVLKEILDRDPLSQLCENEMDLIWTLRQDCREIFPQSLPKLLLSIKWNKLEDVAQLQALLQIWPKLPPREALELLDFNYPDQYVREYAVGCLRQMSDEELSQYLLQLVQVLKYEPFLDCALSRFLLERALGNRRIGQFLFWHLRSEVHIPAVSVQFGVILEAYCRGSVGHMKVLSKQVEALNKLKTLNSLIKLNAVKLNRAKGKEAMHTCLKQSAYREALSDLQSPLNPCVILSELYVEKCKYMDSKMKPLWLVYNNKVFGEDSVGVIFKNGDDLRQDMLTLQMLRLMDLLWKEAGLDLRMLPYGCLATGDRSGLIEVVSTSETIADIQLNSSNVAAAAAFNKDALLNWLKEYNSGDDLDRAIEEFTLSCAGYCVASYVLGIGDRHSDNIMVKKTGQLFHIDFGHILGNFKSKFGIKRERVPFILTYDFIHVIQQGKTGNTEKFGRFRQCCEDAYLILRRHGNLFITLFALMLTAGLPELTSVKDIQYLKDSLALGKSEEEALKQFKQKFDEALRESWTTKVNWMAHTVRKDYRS

SMILES	IC50 (PI3K beta) [µM]	IC50 [1] [µM]	solubility (Solubility at pH 6.8) [mg/mL]	IC50 (PI3K alpha) [µM]
Cc1nn(C)cc1-n1c(=O)n(C)c2cnc3ccc(-c4ccc(N5CCNCC5)nc4)cc3c21 [Example 126, 1-(1,3-Dimethyl-1H-pyrazol-4-yl)-3-methyl-8-(6-piperazin-1-yl-pyridin-3-yl)-1,3-dihydro-imidazo[4,5-c]quinolin-2-one]	0.802	0.265	> 0.455	0.051
COc1ncc(-c2ccc3ncc4c(c3c2)n(-c2cn(C)nc2C)c(=O)n4C)cc1N [Example 127, 8-(5-Amino-6-methoxy-pyridin-3-yl)-1-(1,3-dimethyl-1H-pyrazol-4-yl)-3-methyl-1,3-dihydro-imidazo[4,5-c]quinolin-2-one]	0.044	0.009	0.386 (≈ 929 µM)	0.02
Cc1nn(C)cc1-n1c(=O)n(C)c2cnc3ccc(-c4cnc5ccn(C)c5c4)cc3c21 [Example 129, 1-(1,3-Dimethyl-1H-pyrazol-4-yl)-3-methyl-8-(1-methyl-1H-pyrrolo[3,2-b]pyridin-6-yl)-1,3-dihydro-imidazo[4,5-c]quinolin-2-one]	0.034	0.016	0.021 (≈ 49.6 µM)	0.012
CNc1ncc(-c2ccc3ncc4c(c3c2)n(-c2cn(C(C)C)nc2C)c(=O)n4C)cc1F [Example 141.3, 8-(5-Fluoro-6-methylamino-pyridin-3-yl)-1-(1-isopropyl-3-methyl-1H-pyrazol-4-yl)-3-methyl-1,3-dihydro-imidazo[4,5-c]quinolin-2-one]	0.407	0.013	0.005 (≈ 11.2 µM)	0.021
Cc1nn(C(C)C)cc1-n1c(=O)n(C)c2cnc3ccc(-c4cnc(N)c(F)c4)cc3c21 [Example 142.3, 8-(6-Amino-5-fluoro-pyridin-3-yl)-1-(1-isopropyl-3-methyl-1H-pyrazol-4-yl)-3-methyl-1,3-dihydro-imidazo[4,5-c]quinolin-2-one]	0.385	0.019	0.005 (≈ 11.6 µM)	0.025
CNc1ncc(-c2ccc3ncc4c(c3c2)n(-c2c(C)nn(C)c2C)c(=O)n4C)cc1C(F)(F)F [Example 144.1, 3-Methyl-8-(6-methylamino-5-trifluoromethyl-pyridin-3-yl)-1-(1,3,5-trimethyl-1H-pyrazol-4-yl)-1,3-dihydro-imidazo[4,5-c]quinolin-2-one]	0.08	0.049	> 0.481	0.036
Cc1nn(C)c(C)c1-n1c(=O)n(C)c2cnc3ccc(-c4cnc(N)c(Cl)c4)cc3c21 [Example 148.1, 8-(6-Amino-5-chloro-pyridin-3-yl)-3-methyl-1-(1,3,5-trimethyl-1H-pyrazol-4-yl)-1,3-dihydro-imidazo[4,5-c]quinolin-2-one]	0.051	0.139	0.092 (≈ 212 µM)	0.026
Cc1nn(C)cc1-n1c(=O)n(C)c2cnc3ccc(-c4cnc(N)c(Cl)c4)cc3c21 [Example 148.2, 8-(6-Amino-5-chloro-pyridin-3-yl)-1-(1,3-dimethyl-1H-pyrazol-4-yl)-3-methyl-1,3-dihydro-imidazo[4,5-c]quinolin-2-one]	0.035	0.006	0.004 (≈ 9.53 µM)	0.018
CCNc1cc(-c2ccc3ncc4c(c3c2)n(-c2cn(C)nc2C)c(=O)n4C)cnc1CO [Example 155.1, 1-(1,3-Dimethyl-1H-pyrazol-4-yl)-8-(5-ethylamino-6-hydroxymethyl-pyridin-3-yl)-3-methyl-1,3-dihydro-imidazo[4,5-c]quinolin-2-one]	0.019	0.022	0.073 (≈ 165 µM)	0.013
CCNc1cc(-c2ccc3ncc4c(c3c2)n(-c2cn(CC)nc2C)c(=O)n4C)cnc1CO [Example 155.2, 8-(5-Ethylamino-6-hydroxymethyl-pyridin-3-yl)-1-(1-ethyl-3-methyl-1H-pyrazol-4-yl)-3-methyl-1,3-dihydro-imidazo[4,5-c]quinolin-2-one]	0.017	0.007	> 0.458	0.014
CNc1cc(-c2ccc3ncc4c(c3c2)n(-c2cn(C(C)C)nc2C)c(=O)n4C)cnc1CO [Example 158.2, 8-(6-Hydroxymethyl-5-methylamino-pyridin-3-yl)-1-(1-isopropyl-3-methyl-1H-pyrazol-4-yl)-3-methyl-1,3-dihydro-imidazo[4,5-c]quinolin-2-one]	0.184	0.006	> 0.458	0.044
CNc1cc(-c2ccc3ncc4c(c3c2)n(-c2cn(C)nc2Cl)c(=O)n4C)cnc1CO [Example 158.3, 1-(3-Chloro-1-methyl-1H-pyrazol-4-yl)-8-(6-hydroxymethyl-5-methylamino-pyridin-3-yl)-3-methyl-1,3-dihydro-imidazo[4,5-c]quinolin-2-one]	0.008	< 0.005	0.003 (≈ 6.67 µM)	0.007
CNc1cc(-c2ccc3ncc4c(c3c2)n(-c2cn(C)nc2C)c(=O)n4C)cnc1C [Example 163, 1-(1,3-Dimethyl-1H-pyrazol-4-yl)-3-methyl-8-(6-methyl-5-methylamino-pyridin-3-yl)-1,3-dihydro-imidazo[4,5-c]quinolin-2-one]	0.01	< 0.005	0.024 (≈ 58 µM)	0.006
CCN(C)c1cc(-c2ccc3ncc4c(c3c2)n(-c2cn(C)nc2C)c(=O)n4C)cnc1C [Example 165, 1-(1,3-Dimethyl-1H-pyrazol-4-yl)-8-[5-(ethyl-methyl-amino)-6-methyl-pyridin-3-yl]-3-methyl-1,3-dihydro-imidazo[4,5-c]quinolin-2-one]	0.025	0.011	> 0.442	0.007
Cc1nn(C(C)C)cc1-n1c(=O)n(C)c2cnc3ccc(-c4cnc(N)c(CO)c4)cc3c21 [Example 169.1, 8-(6-Amino-5-hydroxymethyl-pyridin-3-yl)-1-(1-isopropyl-3-methyl-1H-pyrazol-4-yl)-3-methyl-1,3-dihydro-imidazo[4,5-c]quinolin-2-one]	0.087	0.037	0.289 (≈ 652 µM)	0.024
Cc1nn(C)c(C)c1-n1c(=O)n(C)c2cnc3ccc(-c4cnc(N)c(CO)c4)cc3c21 [Example 169.2, 8-(6-Amino-5-hydroxymethyl-pyridin-3-yl)-3-methyl-1-(1,3,5-trimethyl-1H-pyrazol-4-yl)-1,3-dihydro-imidazo[4,5-c]quinolin-2-one]	0.165	0.586	> 0.429	0.034
Cc1nn(C)cc1-n1c(=O)n(C)c2cnc3ccc(-c4cncc(NC5CCC5)c4)cc3c21 [Example 172, 8-(5-Cyclobutylamino-pyridin-3-yl)-1-(1,3-dimethyl-1H-pyrazol-4-yl)-3-methyl-1,3-dihydro-imidazo[4,5-c]quinolin-2-one]	0.146	0.013	0.011 (≈ 25 µM)	0.039
Cc1nn(C)cc1-n1c(=O)n(C)c2cnc3ccc(-c4cncc(N(C)C(C)C)c4)cc3c21 [Example 173, 1-(1,3-Dimethyl-1H-pyrazol-4-yl)-8-[5-(isopropyl-methyl-amino)-pyridin-3-yl]-3-methyl-1,3-dihydro-imidazo[4,5-c]quinolin-2-one]	0.148	0.029	0.008 (≈ 18.1 µM)	0.023
